Assays:
S1UGT = experiment: UDP-glucuronosyltransferase activity assay (HPLC) with recombinant S1UGT; type: biochemical, Scutellaria laeteviolacea v. yakusimensis; conditions: 100 μM glycosyl acceptor substrate, 2 mM UDP-glucuronic acid, pH 7.5, 30° C., 30 minutes
Method: (§1) Escherichia coli BL21 (DE3) was transformed with each plasmid obtained in 4-(1) above. The transformant obtained was shake cultured overnight at 37° C. in 4 ml of LB medium (10 g/l tryptone, 5 g/l yeast extract, 1 g/l NaCl) supplemented with 50 μg/ml of ampicillin. The culture broth, 4 ml, which reached the stationary phase, was inoculated into 80 ml of the medium with the same composition, followed by shake culture at 37° C. When the cell turbidity (OD600) reached approximately 0.5, 0.4 mM IPTG (isopropyl-β-thiogalactopyranoside) in a final concentration was added to the medium, followed by shake culture at 22° C. for 20 hours. All of the subsequent procedures were performed at 4° C. The transformants cultured were centrifuged (7,000×g, 15 mins.) to collect the cells, and 2 ml/g cell of Buffer S (20 mM sodium phosphate buffer (pH 7.4), 20 mM imidazole, 0.5 M NaCl, 14 mM β-mercaptoethanol) was added to the cells for suspension. Subsequently, ultrasonication was performed (15 secs.×8) followed by centrifugation (15,000×g, 10 mins.). To the supernatant obtained, 0.12% (w/v) polyethyleneimine in a final concentration was added to […], which was then allowed to stand for 30 minutes. The mixture was centrifuged (15,000×g, 10 mins.) and the supernatant was recovered as a crude enzyme solution. The crude enzyme solution was applied to His SpinTrap (GE Healthcare), which had been equilibrated with Buffer S, and centrifuged (70×g, 30 secs.). After washing with 600 μl of Buffer S, the protein bound to the column was stepwise eluted with 600 μl each of Buffer S containing 100, 200 and 500 mM imidazole. The buffer in each fraction eluted was replaced by 20 mM potassium phosphate buffer (pH 7.5) containing 14 mM β-mercaptoethanol, using Microcon YM-30 (Amicon). […] These fractions were mixed and used for analysis.
(§2) Standard reaction conditions are as follows. A reaction solution (2 mM UDP-glucuronic acid, 100 μM glycosyl acceptor substrate, 50 mM potassium phosphate buffer (pH 7.5), enzyme solution), 50 μl, was prepared and the enzyme solution was added to initiate the reaction at 30° C. for 30 minutes. The reaction was stopped by adding 50 μl of 0.5% TFA in CH3CN and provided for HPLC analysis. The conditions for HPLC are as follows: column, Develosil C30-UG-5 (4.6×150 mm); eluant A, 0.1% TFA/H2O; eluant B, 0.08% TFA/90% CH3CN; conditions A for elution (except for aurone, catechin, coumarine and phenylpropanoid), 0 min/5% B→18 min/100% eluant B'18.1 min/5% B→25 min/5% B; conditions B for elution (aurone, catechin, coumarine and phenylpropanoid), 0 min/5% B→20 min/50% eluant B→20.5 min/5% B→25 min/5% B; flow rate, 1 ml/min; detection wavelength: 280 and 350 nm.

Sb7GAT = conditions: enzyme purified from Scutellaria baicalensis; Nagashima et al. 2000; cited from earlier work
PfUGT50 = experiment: UDP-glucuronosyltransferase activity assay (HPLC) with recombinant PfUGT50; type: biochemical, Perilla frutescens; conditions: 100 μM glycosyl acceptor substrate, 2 mM UDP-glucuronic acid, pH 7.5, 30° C., 30 minutes
Method: as §1, §2

AmUGTcg10 = experiment: UDP-glucuronosyltransferase activity assay (HPLC) with recombinant AmUGTcg10; type: biochemical, Antirrhinum majus; conditions: 100 μM glycosyl acceptor substrate, 2 mM UDP-glucuronic acid, pH 7.5, 30° C., 30 minutes
Method: as §1, §2

SiUGT23 = experiment: UDP-glucuronosyltransferase activity assay (HPLC) with recombinant SiUGT23; type: biochemical, Sesamum indicum; conditions: 100 μM glycosyl acceptor substrate, 2 mM UDP-glucuronic acid, pH 7.5, 30° C., 30 minutes
Method: as §2
cDNA containing full-length ORF of SiUGT23 derived from Sesamum indicum was amplified by a gene-specific primer set (SEQ ID NOs: 24 and 25). cDNA synthesized using total RNA extracted from sesame seeds was used as a template. SiUGT23 was incorporated into Escherichia coli expression vector as in UGT of Perilla frutescens, Scutellaria laeteviolacea v. yakusimensis and Antirrhinum majus in EXAMPLE 1 and recombinant SiUGT23 protein was expressed in the same way to assay the enzyme activity.

SMILES | relative activity to each substrate, taking the activity to scutellarein as 100% (S1UGT) [%] | action of Sb7GAT on the substrate (Sb7GAT) | relative activity to each substrate, taking the activity to scutellarein as 100% (PfUGT50) [%] | relative activity to each substrate, taking the activity to scutellarein as 100% (AmUGTcg10) [%] | relative activity to each substrate, taking the activity to scutellarein as 100% (SiUGT23) [%]
O=c1cc(-c2ccccc2)oc2cc(O)c(O)c(O)c12 [baicalein] | 63 | acts | 73 | 22 | 24
O=c1cc(-c2ccc(O)c(O)c2)oc2cc(O)cc(O)c12 [luteolin] | 0.6 | does not act | 41 | 34 | 29
O=c1cc(-c2ccc(O)cc2)oc2cc(O)cc(O)c12 [apigenin] | 3 | does not act | 44 | 40 | 7
O=c1c(O)c(-c2ccc(O)c(O)c2)oc2cc(O)cc(O)c12 [quercetin] | 1 | not | 26 | 4 | 4
